Where “and” joins values, the source holds several entries; their conditions need not be identical. Equal values may be shown once. Residues, ends and D or L forms follow the SMILES beside them.
Columns and labels:
white mongrel male mice = conditions: mouse, in vivo
Protocol: The study of acute toxicity was performed on 72 white mongrel male mice with body weight of 20-22 g. The animals were randomly subdivided into 6 equal groups. The substance was administered to the animals once, intramuscularly, in the doses of 1 mg/kg, 2 mg/kg, 3 mg/kg, 4 mg/kg, 5 mg/kg in 0.25 ml of sterile 0.9% NaCl solution. The control animals received 0.9% NaCl solution in the same volume.

male guinea pigs [1] = experiment: Study of chronic toxicity, 6 months; conditions: guinea pig, in vivo
Protocol: (§1) The studies of chronic toxicity were conducted for 6 months, basing on the term of recommended clinical administration of the substance, on 84 male guinea pigs with body weight of 270-310 g. Experimental animals received the peptide daily, once a day, intramuscularly, for 6 months in the doses of 1 μg/kg, 0.1 mg/kg, 1 mg/kg in 0.5 ml of sterile 0.9% NaCl solution. Control animals received sterile 0.9% NaCl solution in the same volume and by the same schedule. Traditional methods were used for the evaluation of the following indices of the animals' peripheral blood: the quantity of erythrocytes, hemoglobin, reticulocytes, thrombocytes, leukocytes, leukocyte formula, erythrocyte sedimentation rate (ESR), erythrocyte resistance. Alongside with that, the content of total protein in the serum was identified using Lowry's method, as well as potassium and sodium content using the method of plasma spectrophotometry. After the completion of the experiment pathomorphologic studies of animal brain and spinal cord, spinal cord ganglia, thyroid gland, parathyroid glands, adrenal glands, testis, pituitary body, heart, lungs, aorta, liver, kidneys, urinary bladder, pancreas, stomach, small intestine, large intestine, thymus, spleen, lymph nodes and bone marrow were performed.

[2] = tested on: rats with spinal cord trauma; experiment: Morphologic alterations in the central nervous system in spinal cord trauma; type: in vivo, Wistar rats
Protocol: The study was performed on mature Wistar rats of both sexes with body weight of 180-200 g. The experimental group of 27 rats was subjected to spinal cord trauma.
The animals were injured in the lumbar segment of the spinal cord according to the following method. The lateral surfaces of anesthetized rats' vertebrae on the level of the last rib were compressed through the skin using dressing forceps with a force of 15 kg on the working surfaces. In 24 hours after the trauma the surviving animals were subdivided into 2 groups.
The rats of the second group (control) received sterile physiological saline solution in the same volume.
Neurohistological studies were performed in the animals of both groups on the 30th day of the experiment. For this purpose spinal cord ganglia were taken from the spots of injury and above the injured spots, as well as lumbar and cervical segments of the spinal cord and motor cortex fragments and pyramid tracts of the brain. Neurohistological studies were performed using electronic and luminous microscopy.
The samples intended for luminous microscopy were fixed in 96% spirit and 10% formalin, then packed into celloidin with subsequent staining with hematoxylin-eosine, as well as staining by Nissle, Van Gison, Weigert, Spielmeyer. The samples were fixed and cut in accordance with conventional methods of histological processing and staining of the samples.
The samples intended for electronic microscopy were fixed by 2% osmic acid with cacodylate buffer, then packed in Epon 812 and contrasted in lead […] by Reynolds. The preliminary evaluation of the samples was performed using semifine sections. Ultrafine sections were studied using electronic microscope UEM-100SKh.

brain cortex explants = experiment: Development of brain cortex explants (area index); type: cell-based, Wistar rats
Protocol: This study was performed on 32 fragments of brain cortex from Wistar rats with body weight of 150-200 g. Nutritional medium for explants cultivation consisted of 35% Eagle's solution, 25% calf fetal serum, 35% Hank's solution, 5% chicken embryonic extract, with the addition of glucose (0.6%), insulin (0.5 units/ml), penicillin (100 units/ml), glutamine (2 mM). […] Peptide H-Glu-Asp-Arg-OH was added into the medium, reaching ultimate concentration of 1, 10 and 100 ng/ml.
Area index (AI), i.e. the ratio of total explant area together with the growth zone to the initial area of brain cortex fragment served as the criterion of biologic activity. The statistical significance of the difference between the compared mean AI values was evaluated using Student's t-criterion. AI values were expressed in percent, control AI values being considered as 100%.

[3] = tested on: isolated neurons of Astacus leptodactilus crayfish; experiment: Life span of isolated crayfish neurons; type: cell-based; conditions: 10 μg/ml
Protocol: Isolated neurons of Astacus leptodactilus crayfish for the in vitro study of peptide H-Glu-Asp-Arg-OH on their life span were extracted by axotomia, being regarded as a model of cell death by apoptosis.
Stretching receptor neurons of a crayfish closely resemble central neurons of vertebrals by their electrophysiological, biological and structure properties. They generate spikes with nearly constant rate during 10-15 hours. Two symmetrical neurons (control and experimental) extracted from the abdominal segment were placed into 2 ml chambers filled with Harreveld's solution. Neuronal potentials were registered extracellularly on the axons by fastened glass pipette electrodes, then amplified and recorded using H-338 recorder. At the same time the frequency of action potentials was registered using two-channel analog frequency meter and H-339 data recorders. In the beginning of the experiment impulse frequency of experimental and control neurons was set on the level of 10-15 Hz by the stretching of the muscle. After 1 hour of stabile spike generation with constant rate peptide H-Glu-Asp-Arg-OH in the concentration of 10 μg/ml was added into the experimental chamber. The activity of the neurons was constantly recorded before the spontaneous termination of spikes generation. Life span of neurons was compared for each couple. Altogether 10 couples of neurons were used.

[4] = tested on: rats with heavy compression cranial trauma; experiment: Reparative processes in rat brain cortex after acute heavy cranial trauma (CAAR, rotating rod); type: in vivo, white mongrel rats
Text: The effect of peptide H-Glu-Asp-Arg-OH on reparative processes in the brain was estimated on the pattern of acute heavy cranial trauma. The dynamics of central nervous system functions restoration were identified by testing motion coordination and muscle tonus of the animals, as well as their ability to learning and reproducing the conditioned reflex habit.
24 white mongrel rats were subjected to heavy compression cranial trauma from a falling leaden bob.
The estimation of the rats' ability to learn and reproduce the habits was performed using the test of conditioned active avoidance reflex (CAAR). Muscle tonus and motion coordination were tested by rotating the rats on a rod with increasing speed and measuring the time of their holding on to the rod.

[5] = tested on: patients with remote consequences of cranial trauma; experiment: Efficacy in patients with consequences of cranial trauma (clinical result, corrective test, EEG alpha index); type: in vivo; conditions: patients of the main groups after treatment
Protocol: This study was performed on 25 patients aged 31-60 with remote consequences of cranial trauma, who were randomly subdivided into 2 groups. These patients sustained cranial traumas from 1 to 10 years ago. Main group patients were subdivided into 3 groups depending on the severity of their cranial trauma. Patients with the most severe consequences of cranial trauma received the pharmaceutical composition containing peptide H-Glu-Asp-Arg-OH once a day, intramuscularly, in the dose of 5.0 mg in 1 ml of sterile 0.9% NaCl solution for 10 days. Main group patients with cranial trauma consequences of intermediate severity were treated with the pharmaceutical composition containing peptide H-Glu-Asp-Arg-OH once a day, intramuscularly, in the dose of 10.0 μg in 1 ml of sterile 0.9% NaCl solution for 10 days. Main group patients with mild consequences of cranial trauma received the pharmaceutical composition containing peptide H-Glu-Asp-Arg-OH once a day, intramuscularly, in the dose of 1.0 μg in 1.0 ml of sterile 0.9% NaCl solution for 10 days.
The efficacy of the pharmaceutical composition containing H-Glu-Asp-Arg-OH peptide was estimated judging by the effect on integral function of the brain, i.e., attention, and on bioelectric activity of the brain using the corrective test and electroencephalogram.
The evaluation of the effect of pharmaceutical composition containing peptide H-Glu-Asp-Arg-OH on bioelectric activity of the brain was performed by means of calculating the alpha index before and after the treatment.

[6] = tested on: rat brain cortex in hypoxia; experiment: Free radical oxidation reactions in rat brain cortex in hypoxia; type: in vivo, white mongrel rats
Protocol: The study was performed on 18 white mongrel rats. Peptide H-Glu-Asp-Arg-OH was administered to the animals intraperitoneally, in the dose of 1 μg in 1.0 ml of sterile physiological 0.9% NaCl solution once a day for 10 days. 24 hours after the completion of peptide administration the animals were subjected to hypoxic hypoxia. Hypoxia was modeled in the altitude chamber of flow-ejector type, the atmosphere pressure in the chamber being 0.029 MPa, which corresponds to the altitude of 9000 m above sea level. Compression and decompression rate made 0.005 MPa per minute. Carbon dioxide and moisture absorbent was present in the altitude chamber. The animals were held in the chamber for 3 hours in the conditions of free conduct and under constant observation.
The intensity of peroxide lipid oxidation (POL) was estimated judging by the level of initial POL products, i.e. diene conjugates, and terminal products, i.e. Schiff's bases, playing a significant role in neurons damage. The level of protein peroxidation was estimated by the level of carbonyl derivative amino acids in proteins after interaction with 2,4-dinitrophenylhydrazine.

male guinea pigs [7] = conditions: guinea pig, in vivo
Protocol: as §1

white mongrel male rats = experiment: Study of sub-acute toxicity, 90 days; type: in vivo; conditions: long-term administration, doses exceeding the therapeutic one by 100-1000 times
Protocol: The study of sub-acute toxicity was performed on 65 white mongrel male rats with body weight of 160-210 g. […] Morphology and properties of the animals' peripheral blood were studied before the administration of the substance, as well as on the 30th, 60th and 90th day after the beginning of the administration. Upon completion of the experiment biochemical and coagulologic indices of the blood were also evaluated.

[8] = 10 μg/kg intramuscularly daily for 10 days, 30th day
[9] = 1 μg intraperitoneally once a day for 10 days, then hypoxia

N=C(N)NCCC[C@H](NC(=O)[C@H](CC(=O)O)NC(=O)[C@@H](N)CCC(=O)O)C(=O)O [peptide H-Glu-Asp-Arg-OH, glutamyl-aspartyl-arginine] (H-Glu-Asp-Arg-OH)
toxic reactions (white mongrel male mice): does not cause toxic reactions | pathologic alterations in the organism (general status, blood indices, organ morphology, cardiovascular, respiratory, liver and kidney functions) (male guinea pigs [1]): no pathologic alterations | alterations in nerve cells and outgrowths of upper spinal cord segments [2, 8]: less pronounced | neuronal cell cytoplasm, electronic microscopy [2, 8]: signs of restoration in the neuronal cells cytoplasm | type of neuronal alterations in the spinal cord at the injury spot ([2]; 10 μg/kg intramuscularly daily for 10 days, 30th day, luminous microscopy, control showed much more heavy and ischemic alterations): mainly “primarily irritated” cells | effect on spinal cord neurons regeneration ([2]; animals with spinal cord trauma): stimulating effect on spinal cord neurons regeneration | Area index (AI) growth as compared to the control (brain cortex explants; 10 ng/ml, 3rd day of cultivation, statistically significant): 37% | neurites stimulation of cortex explants (brain cortex explants; after 7 days of cultivating, same concentrations): same effects of neurites stimulation | Life span of isolated crayfish neurons ([3]; control 11.9 hours): 13.7 h and 13.7 ± 0.2 h | prolongation of the life span of isolated neurons ([3]; vs control): 15% | time of holding on to the rod relative to the control (rotating rod test) ([4]; 48 hours after the trauma, 10 μg/kg intramuscularly): more than 2 times | number of animals capable of learning relative to the control ([4]; 96 hours after the trauma, 10 μg/kg intramuscularly, CAAR test): 2 times | indices of the animals' learning ability ([4]; by the 14th day after the trauma): close to normal values | indices of learning ability ([4]; in 30 days, 10 μg/kg intramuscularly): higher than in the control | Number of mistakes (corrective test) ([5]; before treatment 12.6 ± 1.3): 6.4 ± 1.1 | Alpha index (EEG) ([5]; before treatment 35.7 ± 4.6): 47.9 ± 3.1 | Number of registered signs (corrective test) ([5]; before treatment 1519.1 ± 141.7): 2429.6 ± 105.3 | Diene conjugates [6, 9]: 28.57 ± 1.84 nmole/g of tissue | Level of proteins peroxidation [6, 9]: 4.68 ± 0.07 μmole/mg of protein | Schiff's bases [6, 9]: 255.4 ± 26.8 conv. units/g of tissue | change in Schiff's bases content ([6]; hypoxia, vs control): tendency towards a decrease | change in the level of diene conjugates ([6]; hypoxia, vs control): statistically significant decrease | protein peroxidation ([6]; hypoxia, vs control): inhibited protein peroxidation | changes in blood morphology and biochemical indices (male guinea pigs [7]): no statistically significant changes | side effects, chronic toxicity (male guinea pigs [7]): absence of any side effects | side effects, subacute toxicity (white mongrel male rats): absence of any side effects

From US8524674B2, “Method of improving the conditioned reflex habit, the muscle tonus, or the motion coordination of a patient after suffering trauma to the brain cortex” (Obschestvo S Ogranichennoi Otvetstvennostyu “Sia Peptides”, priority 2006, dated 2013)
